These results are taken from publication PMC9281569, “Two HCN4 Channels Play Functional Roles in the Zebrafish Heart” (Frontiers in Physiology, 2022).

One series has as its system adult zebrafish. Also on record: method as in Marchant and Farrell, 2019. To be noted: intraperitoneal injection, depending on test temperatures, ref Marchant and Farrell, 2019; cited from earlier work.
Series [1] relates to developing zebrafish embryos. Briefly: Antisense morpholino knockdown: heart rate of zebrafish embryos. The format is in vivo, zebrafish (Danio rerio). The settings on record: 200 μM MO into 1-cell embryos. The method, then: The heart rate of zebrafish embryos was measured under an Olympus MVX10 microscope at room temperature. After zebrafish embryos were acclimated to the new environment (room temperature, light), heart rate was counted by eye.
(§1) Morpholino antisense oligos (MO) were purchased from Gene Tools (Philomath, OR, United States) ([Fujii et al., 2020]). Zebrafish 1-cell embryos were injected with approximately 5 nL of MO solution at a concentration of 200 μM (approximately 10 ng/embryo).
Since DrHCN4 and DrHCN4L have similar sensitivities to the HCN inhibitors, individual gene knockdowns would be required for evaluating each channel’s role in heart rate regulation. Before knocking down each gene, we first confirmed that both HCN4 channels (DrHCN4 and DrHCN4L) were expressed in day 1, day 3, and day 7 embryos and in the heart and brain of adult fish (Figure 6A). We next investigated whether the knockdown of each gene affects heart rate in zebrafish. The expression of each gene was knocked down by using antisense morpholino (MO), which is commonly used in zebrafish ([Blum et al., 2015]; [Jou et al., 2017]; [Fujii et al., 2020]). MO solutions were injected into 1-cell embryos of zebrafish. […] Embryos were injected with control MO, DrHCN4 MO, and DrHCN4L MO at concentrations of 200 μM or with a mixture of DrHCN4 MO and DrHCN4L MO (200 μM for each). At 24 h after injection of MO, there was a slight decrease of heart rate in embryos injected with DrHCN4 MO (44 ± 2 bpm, p = 0.049) and DrHCN4L MO (45 ± 2 bpm, p = 0.092) compared to the heart rate in embryos injected with control MO (54 ± 1 bpm). […] After 48 h, heart rate was considerably lower in all three groups compared to that in the control group (135 ± 4 bpm): DrHCN4 MO (110 ± 3 bpm, p < 0.001), DrHCN4L MO (111 ± 1 bpm, p = 0.001), and mixture of DrHCN4 MO and DrHCN4L MO (116 ± 7 bpm, p = 0.014). However, at 72 h after MO injection, heart rate in all three groups had returned to the same level as that in the control group (145 ± 5 bpm): DrHCN4 MO (136 ± 3 bpm, p = 0.509), DrHCN4L MO (141 ± 5 bpm, p = 0.921), and mixture of DrHCN4 MO and DrHCN4L MO (147 ± 7 bpm, p = 0.991) (Figure 6B and Table 6).
(§2) FIGURE 6 Effects of HCN4 channel knockdown on zebrafish. (A) Expression of DrHCN4 and DrHCN4L in one (1), three (3), and seven (7) day embryos/larvae as well as in the heart (H) and brain (B) of adult fish was confirmed by RT-PCR. Arrows indicate the DNA ladder markers of 1,000 bp and 500 bp. (B) Heart rates at 24, 48, and 72 h are shown in bar graphs for 200 μM MO-injected zebrafish embryos: control MO (n = 20), DrHCN4 MO (n = 10), DrHCN4L MO (n = 10), and mixed DrHCN4 and DrHCN4L MO (n = 10). Statistical analysis was performed by Dunnett’s test. (C) Representative examples of zebrafish injected with control MO, DrHCN4 MO, DrHCN4L MO, and mixed DrHCN4 and DrHCN4L MO. […] Bar, 200 μm. (D) Ratios of normal embryos, pericardial edema, and death at 48 h after injection of 200 µM MO: control MO (n = 136), DrHCN4 MO (n = 75), DrHCN4L MO (n = 34), and mixed DrHCN4 and DrHCN4L MO (n = 30). (E) Pericardial edema and death ratios at 72 h after injection of 200 µM MO. Control MO (n = 136), DrHCN4 MO (n = 75), DrHCN4L MO (n = 34), and mixed DrHCN4 and DrHCN4L MO (n = 30).

A further series deals with zebrafish embryos. Briefly: Incidence of pericardial edema in MO-injected zebrafish embryos. To be noted: embryos surviving first 24 h. The format is in vivo, zebrafish (Danio rerio). Here is the method:
as §1, §2
Pericardial edema is often observed in embryonic zebrafish with heart failure ([Narumanchi et al., 2021]). We determined the incidence of edema in zebrafish injected with 200 μM MO. We only examined zebrafish embryos that survived for the first 24 h after MO injection, and the rates of edema occurrence were determined at 48 and 72 h after injection. […] After 72 h, the proportions of embryos with edema increased to 79, 94, and 87% (Figure 6E).

Series [2] has as its system developing zebrafish embryos. Briefly: Antisense morpholino knockdown: heart rate of zebrafish embryos. Format: in vivo, zebrafish (Danio rerio). The settings on record: Supplementary Figure S2, 52 hpf.
Where [3] appears, read: 48 h after injection of 200 μM MO.
Where [4] appears, read: 72 h after injection of 200 μM MO.

As to `COc1ccc(CCN(C)CCCN2CCc3cc(OC)c(OC)cc3CC2=O)cc1OC` [zatebradine], the “Reduction of maximum heart rate” value in the series on adult zebrafish was 38–65%.

For “5′-GTAATTACTGCCACCGTGCACCACA-3′ (all phosphorodiamidate morpholino (PMO)) [DrHCN4 MO, Morpholino antisense oligo against DrHCN4 (Gene Tools)]”, the results for the Heart rate in series [1] (24 h after MO injection), in series [1] (48 h after MO injection) and in series [1] (72 h after MO injection) were 44 ± 2 bpm, 110 ± 3 bpm and 136 ± 3 bpm, respectively. Besides, the “Embryos showing pericardial edema” value stood at 59% in the series on zebrafish embryos (setting [3]) and 79% in the series with zebrafish embryos (setting [4]).

In the case of “5′-CCTCTTACCTCAGTTACAATTTATA -3′ [Control MO]”, the results for the Heart rate in series [1] (24 h after MO injection), in series [1] (48 h after MO injection) and in series [1] (72 h after MO injection) were 54 ± 1 bpm, 135 ± 4 bpm and 145 ± 5 bpm, respectively. Also, the “Effect of injection on heart rate” value in series [2] is on record as “did not affect heart rate”.

On to “5′-GGCGACGCTGGCTGAAAAATAGGTC -3′ (all phosphorodiamidate morpholino (PMO)) [DrHCN4L MO, Morpholino antisense oligo against DrHCN4L (Gene Tools)]”, for which the Heart rate in series [1] (24 h after MO injection) is given as 45 ± 2 bpm; in series [1] (48 h after MO injection) it was 111 ± 1 bpm; in series [1] (72 h after MO injection), 141 ± 5 bpm. Moreover, the figures for the “Embryos showing pericardial edema” value with zebrafish embryos (setting [3]) and in the series on zebrafish embryos (setting [4]) were 62% and 94%, respectively.
